Laboratory results reported in patent publication US20030162788A1, “Combination of MTP inhibitors or apoB-secretion inhibitors with fibrates for use as pharmaceuticals” (Boehringer Ingelheim Pharma KG, priority 2002, published 2003).

How the values were obtained:
fa/fa rats [1] = experiment: Activities of liver enzymes (ALT, AST, GLDH) in the plasma of fa/fa rats (liver toxicity); type: in vivo, rat; conditions: for ALT [U/I], MW ± SEM / AST [U/I], MW ± SEM: plasma, fenofibrate 100 mg/kg twice a day (eight times)
Excerpt: The horizontal line in the diagram indicates three times the level in the control group and is interpreted as the threshold value for a clearly toxic side effect.).

fa/fa rats [2] = experiment: Cholesterol and triglycerides in the plasma of hyperlipaemic fa/fa rats after oral treatment; conditions: for lowering of cholesterol in the plasma compared with the control group / lowering of triglycerides in the plasma compared with the control group: Example A, female fa/fa rats 33 weeks old, MTP inhibitor 1 mg/kg once a day (four times), bezafibrate 100 mg/kg twice a day (eight times), blood 24 hours after last MTP inhibitor dose or 15 hours after last fibrate dose
Description: The effectiveness of the combination of an MTP inhibitor with a fibrate and the effect on hepatic steatosis and liver toxicity can be tested in vivo as follows. Hyperlipaemic rats (e.g. of the rat strain fa/fa) are given the active substances as a suspension in 0.45% NaCl and 5% polyethyleneglycol 400 by oral route using an oesophageal tube (5 ml/kg of body weight). The substances may be given once or several times a day for a period of 4 days, or alternatively over a longer period. The day after the last dose, blood samples are taken by puncturing the retroorbital venous plexus and plasma is prepared. The concentrations of cholesterol and triglycerides in the plasma and the activities of the liver enzymes (e.g. ALT, AST, GLDH) are determined by well-known methods of clinical chemistry. These substrates and enzymes in the plasma may be measured for example with a HITACHI 917 Automatic Analyzer using reagents supplied by Roche Diagnostics (Mannheim) in accordance with the following procedures laid down by Roche Diagnostics:
cholesterol: BM/HITACHI 917, Boehringer Mannheim System No. 1 491 458
triglycerides: BM/HITACHI 917, Boehringer Mannheim System No. 1 730 711.
Female fa/fa rats 33 weeks old were either treated four times with an MTP inhibitor (given orally once a day at 7 a.m.) or treated eight times with a fibrate (given twice a day by oral route at 7 a.m. and 4 p.m.) A third group were given both the MTP inhibitor and the fibrate. The MTP inhibitor was 9-[4-[4-[2-(4-trifluoromethylphenyl)benzoylamino]piperidin-1-yl]butyl]-N-(2,2,2-trifluoro-ethyl)-9H-fluorene-9-carboxamide in a dosage of 1 mg/kg. The fibrate was bezafibrate in a dosage of 100 mg/kg. 24 hours after the last dose of the MTP inhibitor or 15 hours after the last dose of the fibrate blood samples were taken from the animals and the cholesterol, triglycerides and liver enzymes in the plasma were measured.
Male fa/fa rats 32 weeks old were either treated four times with an MTP inhibitor (given orally once a day between about 7 and 8 a.m.) or treated eight times with a fibrate (given twice a day by oral route between about 7 and 8 a.m. and at 4 p.m.) Another group were given both the MTP inhibitor and the fibrate. […] The fibrate was fenofibrate in a dosage of 100 mg/kg. 24 hours after the last dose of the MTP inhibitor or 15 hours after the last dose of fenofibrate, blood was taken from the animals and the levels of cholesterol, triglycerides and liver enzymes in the plasma were measured.
Male fa/fa rats 33 weeks old were either treated four times with an MTP inhibitor (given orally once a day between about 7 and 8 a.m.) or treated eight times with a fibrate (given twice a day by oral route between about 7 and 8 a.m. and at 4 p.m.) Another group were given both the MTP inhibitor and the fibrate. […] The fibrate was fenofibrate in a dosage of 100 mg/kg. 24 hours after the last dose of the MTP inhibitor or 15 hours after the last dose of fenofibrate, blood was taken from the animals and the levels of cholesterol, triglycerides and liver enzymes in the plasma were measured.

fa/fa rats [3] = experiment: Hepatic steatosis: lipid content (triglycerides, free fatty acids) in the liver of fa/fa rats; type: in vivo, rat; conditions: Example B; female fa/fa rats 38 weeks old; oral; MTP inhibitor 0.3 mg/kg once a day (four times); livers removed 24 hours after last dose
Description: In addition, the liver may be removed in order to determine the hepatic steatosis by measuring the lipid content (triglycerides, free fatty acids, cholesterol) in this organ. To do this, 200 mg of liver are homogenised after the addition of 2 ml of isopropanol and extracted for 10 min with shaking. The extract is centrifuged for 10 min at 4° C. and 4000 rpm and one aliquot of the supernatant is used to determine the lipid parameters. The lipids in the liver are measured using commercially available test kits following the manufacturer's instructions (for triglycerides: Triglycerid-Duo S made by BIOMED Labordiagnostik GmbH, Oberschleiβheim; for cholesterol: Cholesterin-Duo S made by BIOMED Labordiagnostik GmbH, Oberschleiβheim; for free fatty acids: NEFA C made by Wako Chemicals GmbH, Neuss).
The MTP inhibitor leads to an increase in the triglycerides and the free fatty acids in the liver (FIGS. 3a and 3b). By combining it with the fibrate, the lipid accumulation caused by the MTP inhibitor is lowered by about 50% (triglycerides in the liver) or by about 80% (free fatty acids in the liver).

[4] = Example D, male fa/fa rats 33 weeks old, compound (a) 3 mg/kg oral once a day
[5] = Example D, male fa/fa rats 33 weeks old, oral, compound (a) 3 mg/kg once a day (four times)
[6] = Example D, male fa/fa rats 33 weeks old, compound (a) 3 mg/kg once a day, fenofibrate 100 mg/kg twice a day
[7] = Example C, male fa/fa rats 32 weeks old, oral, compound (c) 10 mg/kg once a day (four times)
[8] = Example C, male fa/fa rats 32 weeks old, compound (c) 10 mg/kg once a day, fenofibrate 100 mg/kg twice a day
[9] = Example D, male fa/fa rats 33 weeks old, fenofibrate 100 mg/kg twice a day
[10] = Example C, male fa/fa rats 32 weeks old, compound (c) 10 mg/kg oral once a day
[11] = Example A, female fa/fa rats 33 weeks old, oral, MTP inhibitor 1 mg/kg once a day (four times)

Compound	ALT [U/I], MW ± SEM (fa/fa rats [1]; [5])	AST [U/I], MW ± SEM (fa/fa rats [1]; [5])	ALT [U/I], MW ± SEM (fa/fa rats [1]; [7])	AST [U/I], MW ± SEM (fa/fa rats [1]; [7])	reduction of cholesterol in the plasma compared with the control group (fa/fa rats [2]; [8])	reduction of triglycerides in the plasma compared with the control group (fa/fa rats [2]; [8])	lowering of cholesterol in the plasma compared with the control group (fa/fa rats [2])	lowering of triglycerides in the plasma compared with the control group (fa/fa rats [2])	also measured
Cn1cc(NC(=O)c2ccccc2-c2ccc(C(F)(F)F)cc2)cc1C(=O)NCC#Cc1ccc(-c2ccccc2)cc1 [Compound (a), N-[3-(Biphenyl-4-yl)-prop-2-ynyl]-4-(4′-trifluoromethylbiphenyl-2-carbonylamino)-1-methyl-pyrrole-2-carboxylic acid amide]	232.8 ± 67.8 U/I	218.4 ± 57.1 U/I							increase in the activity of ALT in the plasma (fa/fa rats [1]; [4]): 5.1 fold; increase in the activity of AST in the plasma (fa/fa rats [1]; [4]): 6.7 fold; reduction of cholesterol in the plasma compared with the control group (fa/fa rats [2]; [6]): 26%; reduction of triglycerides in the plasma compared with the control group (fa/fa rats [2]; [6]): 76%
CC(C)OC(=O)C(C)(C)Oc1ccc(C(=O)c2ccc(Cl)cc2)cc1 [Fenofibrate, fenofibrate]	44.7 ± 5.3 U/I	33.5 ± 3.7 U/I	47.0 ± 4.9 U/I	30.3 ± 2.7 U/I	15%	20%			increase of cholesterol in the plasma compared with the control group (fa/fa rats [2]; [9]): 10%; increase of triglycerides in the plasma compared with the control group (fa/fa rats [2]; [9]): 38%
CC(C)(Oc1ccc(CCNC(=O)c2ccc(Cl)cc2)cc1)C(=O)O [bezafibrate]							47%	56%	
Cn1cc(NC(=O)c2ccccc2-c2ccc(C(F)(F)F)cc2)cc1C(=O)NCc1ccc(N2CCC3(CCCCC3)CC2)cc1 [Compound (c), N-[4-(3-Aza-spiro[5.5]undec-3-yl)-phenylmethyl]-4-(4′-trifluoromethylbiphenyl-2-carbonylamino)-1-methyl-pyrrole-2-carboxylic acid amide]			232.9 ± 40.6 U/I	232.7 ± 34.2 U/I	58%	94%			increase in the activity of ALT in the plasma (fa/fa rats [1]; [10]): 3.6 fold; increase in the activity of AST in the plasma (fa/fa rats [1]; [10]): 4.5 fold
O=C(NC1CCN(CCCCC2(C(=O)NCC(F)(F)F)c3ccccc3-c3ccccc32)CC1)c1ccccc1-c1ccc(C(F)(F)F)cc1 [9-[4-[4-[2-(4-trifluoromethylphenyl)benzoylamino]piperidin-1-yl]butyl]-N-(2,2,2-trifluoro-ethyl)-9H-fluorene-9-carboxamide]							29%	84%	increase in the ALT activity in the blood plasma compared with the control group (fa/fa rats [1]; [11]): 5.2 fold; increase in the GLDH activity in the blood plasma compared with the control group (fa/fa rats [1]; [11]): 7.7 fold; free fatty acids in the liver (fa/fa rats [3]): increase; triglycerides in the liver (fa/fa rats [3]): increase
